Numbers after ± are expanded uncertainties.
Experiments:
[1] = 101.33 kPa, Liquid; for speed of sound: Frequency=2 MHz, Linear variable-path acoustic interferometer; for mass density: Vibrating tube method
[2] = xn = mol fraction of the nth substance listed; settings: 101 kPa, Liquid; for speed of sound: Frequency=2 MHz, Linear variable-path acoustic interferometer; for mass density: Vibrating tube method

Nc1cccc(Cl)c1 [3-chlorobenzenamine]
[1]
Settings | mass density [kg/m3] | speed of sound [m/s]
303.15 K | 1205.75 ± 0.58 | 1516 ± 2
308.15 K | 1201.14 ± 0.58 | –
313.15 K | 1196.56 ± 0.58 | 1484 ± 2
318.15 K | 1191.98 ± 0.57 | –
323.15 K | 1187.41 ± 0.57 | –

Nc1cccc(Cl)c1 [3-chlorobenzenamine] + OCc1ccccc1
[2]
Settings | mass density, 303.15 K [kg/m3] | mass density, 308.15 K [kg/m3] | mass density, 313.15 K [kg/m3] | mass density, 318.15 K [kg/m3] | mass density, 323.15 K [kg/m3] | speed of sound, 303.15 K [m/s] | speed of sound, 313.15 K [m/s]
x2 = 0.1021 | 1189.69 ± 0.54 | 1184.95 ± 0.54 | 1180.24 ± 0.54 | 1175.53 ± 0.54 | 1170.9 ± 0.53 | 1515.4 ± 9.3 | 1484.3 ± 9.1
x2 = 0.2037 | 1173.42 ± 0.51 | 1168.65 ± 0.51 | 1163.79 ± 0.51 | 1159.09 ± 0.51 | 1154.36 ± 0.5 | 1514.9 ± 9.3 | 1484.6 ± 9.1
x2 = 0.3048 | 1156.94 ± 0.49 | 1152.15 ± 0.49 | 1147.27 ± 0.48 | 1142.57 ± 0.48 | 1137.82 ± 0.48 | 1514.5 ± 9.2 | 1484.9 ± 9.1
x2 = 0.4055 | 1140.31 ± 0.47 | 1135.57 ± 0.46 | 1130.63 ± 0.46 | 1125.95 ± 0.46 | 1121.26 ± 0.46 | 1514.1 ± 9.2 | 1485.2 ± 9.1
x2 = 0.5057 | 1123.48 ± 0.45 | 1118.82 ± 0.45 | 1113.94 ± 0.45 | 1109.34 ± 0.45 | 1104.71 ± 0.44 | 1513.7 ± 9.2 | 1485.5 ± 9.1
x2 = 0.6054 | 1106.48 ± 0.44 | 1101.95 ± 0.44 | 1097.12 ± 0.43 | 1092.63 ± 0.43 | 1088.14 ± 0.43 | 1513.3 ± 9.2 | 1485.8 ± 9.1
x2 = 0.7048 | 1089.33 ± 0.43 | 1084.96 ± 0.43 | 1080.3 ± 0.42 | 1075.88 ± 0.42 | 1071.54 ± 0.42 | 1512.9 ± 9.2 | 1486.1 ± 9
x2 = 0.8036 | 1072.05 ± 0.42 | 1067.86 ± 0.42 | 1063.4 ± 0.42 | 1059.13 ± 0.42 | 1054.96 ± 0.42 | 1512.6 ± 9.2 | 1486.4 ± 9
x2 = 0.902 | 1054.66 ± 0.41 | 1050.79 ± 0.41 | 1046.44 ± 0.41 | 1042.37 ± 0.41 | 1038.37 ± 0.41 | 1512.3 ± 9.2 | 1486.7 ± 9

CN(C)c1ccccc1 [N,N-dimethylaniline]
[1]
Settings | mass density [kg/m3] | speed of sound [m/s]
303.15 K | 948.18 ± 0.41 | 1470 ± 2
308.15 K | 943.55 ± 0.41 | –
313.15 K | 939.78 ± 0.41 | 1432 ± 2
318.15 K | 935.3 ± 0.41 | –
323.15 K | 931.45 ± 0.41 | –

From the NIST ThermoML archive (doi:10.1016/j.fluid.2018.01.025)
